Broadly, the IC50 is the midpoint of a concentration-inhibition curve.

The values that follow come from patent publication US9480677B2, “Enantiomers of spiro-oxindole compounds and their uses as therapeutic agents” (Xenon Pharmaceuticals Inc., priority 2009, dated 2016).

Some results are limits rather than exact numbers.

Data set [1] has as its target T1, hNav1.7 (Homo sapiens, UniProt Q15858). As to the kind of experiment: Electrophysiological assay, whole cell voltage clamp. Format: cell-based. Also noted: expressed in transfected cells; host or cells: HEK293. As to conditions: for Ki: affinity for the inactivated state of hNav1.7; for Kd: affinity for the rested/closed state of hNav1.7, holding potential −120 mV, read-out: Kr. How it is done: HEK293 Cells expressing hNav1.7 were cultured in DMEM growth media (Gibco) with 0.5 mg/mL G418, +/−1% PSG, and 10% heat-inactivated fetal bovine serum at 37° C. and 5% CO2. For electrophysiological recordings, cells were plated on 10 mm dishes.
Whole cell recordings were examined by established methods of whole cell voltage clamp (Bean et al., op. cit.) using an Axopatch 200B amplifier and Clampex software (Axon Instruments, Union City, Calif.). All experiments were performed at ambient temperature. Electrodes were fire-polished to resistances of 2-4 Mohms Voltage errors and capacitance artifacts were minimized by series resistance compensation and capacitance compensation, respectively. Data were acquired at 40 kHz and filtered at 5 kHz. The external (bath) solution consisted of: NaCl (140 mM), KCl (5 mM), CaCl2 (2 mM), MgCl2 (1 mM), HEPES (10 mM) at pH 7.4. The internal (pipette) solution consisted of (in mM): NaCl (5), CaCl2 (0.1), MgCl2 (2), CsCl (10), CsF (120), HEPES (10), EGTA (10), at pH 7.2.
To estimate the steady-state affinity of compounds for the resting and inactivated state of the channel (Kr and Ki, respectively), 12.5 ms test pulses to depolarizing voltages from −60 to +90 m V from a holding potential of −120 m V was used to construct current-voltage relationships (1-V curves). A voltage near the peak of the IV-curve (−30 to 0 m V) was used as the test pulse throughout the remainder of the experiment. Steady-state inactivation (availability) curves were then constructed by measuring the current activated during a 8.75 ms test pulse following 1 second conditioning pulses to potentials ranging from −120 to −10 mV.
The steady-state voltage-dependence of binding of a compound to a voltage-gated sodium channel was determined by measuring the blockage of the ionic current at two holding potentials. Binding to rested-state channels was determined by using a holding potential of −120 mV, so that maximal availability was achieved. Binding to inactivated-state channels was evaluated at a holding potential such that only about 10% of the channels were available to open. The membrane potential was held at this voltage for at least 10 seconds so that drug binding could equilibrate.
The apparent dissociation constant at each voltage was calculated with the equation:
[formula] where Kd is the dissociation constant (either Kr or Ki), and [Drug] is the concentration of the test compound.

The target in data set [2] is T1, hNav1.7. As to the kind of experiment: cell-based.
Data set [3] in a line: Plasma concentration after oral dosing in the CFA model. Format: in vivo, rats. How it is done:
Each enantiomer was dosed at 10, 30, 100 or 200 mg/Kg. The plasma concentration achieved with each dose was also determined and the reversal of pain response (as the % increase from baseline threshold) is plotted as a function of plasma concentration.

In data set [4] the test system is chronic constriction injury neuropathic pain. In words: Neuropathic pain model; chronic constriction injury (CCI). In kind it is in vivo. To be noted: topical ointment containing 2% (w/v).
The target in data set [5] is Nav1.4 (CHO-K1) (Cricetulus griseus, UniProt A0A9J7H6F9). In kind it is cell-based, Chinese Hamster.
Chain of Nav1.4 (CHO-K1) (A0A9J7H6F9 1-1930): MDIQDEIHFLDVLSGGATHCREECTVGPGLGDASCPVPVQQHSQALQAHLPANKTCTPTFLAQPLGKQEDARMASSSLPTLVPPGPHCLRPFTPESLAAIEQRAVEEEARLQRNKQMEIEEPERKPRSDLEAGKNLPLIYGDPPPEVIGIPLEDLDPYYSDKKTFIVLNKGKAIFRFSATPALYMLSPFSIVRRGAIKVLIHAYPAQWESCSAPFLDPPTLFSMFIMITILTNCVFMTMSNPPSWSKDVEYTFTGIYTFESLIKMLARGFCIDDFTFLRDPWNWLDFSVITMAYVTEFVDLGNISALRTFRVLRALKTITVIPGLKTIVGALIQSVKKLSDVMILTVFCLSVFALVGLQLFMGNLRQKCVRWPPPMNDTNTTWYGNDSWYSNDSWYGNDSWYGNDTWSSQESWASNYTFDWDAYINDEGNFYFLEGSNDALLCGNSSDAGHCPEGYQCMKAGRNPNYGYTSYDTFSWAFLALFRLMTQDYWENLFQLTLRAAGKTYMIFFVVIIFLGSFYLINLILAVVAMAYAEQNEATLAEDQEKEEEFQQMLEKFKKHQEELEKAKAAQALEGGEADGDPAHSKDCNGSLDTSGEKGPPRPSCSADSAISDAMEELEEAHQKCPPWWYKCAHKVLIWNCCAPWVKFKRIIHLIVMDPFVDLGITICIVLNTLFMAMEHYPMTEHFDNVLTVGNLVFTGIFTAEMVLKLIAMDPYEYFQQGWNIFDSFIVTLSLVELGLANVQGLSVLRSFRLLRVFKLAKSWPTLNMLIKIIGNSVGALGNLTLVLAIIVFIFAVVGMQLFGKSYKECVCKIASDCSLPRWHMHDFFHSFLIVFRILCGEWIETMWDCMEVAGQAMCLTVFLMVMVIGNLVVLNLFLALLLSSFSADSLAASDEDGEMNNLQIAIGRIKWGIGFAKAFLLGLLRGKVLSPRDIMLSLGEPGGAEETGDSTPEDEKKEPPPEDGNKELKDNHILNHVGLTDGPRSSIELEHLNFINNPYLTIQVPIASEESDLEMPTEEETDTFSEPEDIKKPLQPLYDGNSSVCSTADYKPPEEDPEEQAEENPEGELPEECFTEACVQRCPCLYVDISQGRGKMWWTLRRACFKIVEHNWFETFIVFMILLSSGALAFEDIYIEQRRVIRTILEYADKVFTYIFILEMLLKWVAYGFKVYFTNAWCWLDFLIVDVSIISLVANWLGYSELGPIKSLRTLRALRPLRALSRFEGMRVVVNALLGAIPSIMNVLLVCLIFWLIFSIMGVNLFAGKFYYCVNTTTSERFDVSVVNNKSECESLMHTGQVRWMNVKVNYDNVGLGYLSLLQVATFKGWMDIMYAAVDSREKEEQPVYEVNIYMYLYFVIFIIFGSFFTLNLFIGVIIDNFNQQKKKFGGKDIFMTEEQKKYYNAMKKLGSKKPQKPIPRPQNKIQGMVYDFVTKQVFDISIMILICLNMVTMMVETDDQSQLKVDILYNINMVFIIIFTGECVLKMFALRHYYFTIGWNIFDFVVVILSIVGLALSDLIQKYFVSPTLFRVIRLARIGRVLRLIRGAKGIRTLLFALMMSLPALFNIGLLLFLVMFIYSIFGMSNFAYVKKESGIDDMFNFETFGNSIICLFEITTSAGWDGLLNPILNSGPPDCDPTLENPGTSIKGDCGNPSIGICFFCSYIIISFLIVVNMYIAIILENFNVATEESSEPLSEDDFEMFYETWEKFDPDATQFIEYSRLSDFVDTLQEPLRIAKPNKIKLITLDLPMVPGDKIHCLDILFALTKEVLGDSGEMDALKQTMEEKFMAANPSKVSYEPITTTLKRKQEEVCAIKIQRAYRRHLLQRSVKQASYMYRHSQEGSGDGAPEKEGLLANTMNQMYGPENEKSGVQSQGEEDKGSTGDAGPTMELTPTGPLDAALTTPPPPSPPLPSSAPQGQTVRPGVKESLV
Data set [6] concerns Nav1.8 (SK-N-BE2C). Format: cell-based, human.
Data set [7] relates to Nav1.4 and 1.5 (L6). In kind it is cell-based, rat.
The test system of data set [8] is Nav1.2 and Nav1.7 (PC12). In kind it is cell-based, rat.
Data set [9] concerns Nav1.9 and Nav1.7 (SH-SY5Y). In kind it is cell-based, Human.

T1 sequence (Q15858 whole entry): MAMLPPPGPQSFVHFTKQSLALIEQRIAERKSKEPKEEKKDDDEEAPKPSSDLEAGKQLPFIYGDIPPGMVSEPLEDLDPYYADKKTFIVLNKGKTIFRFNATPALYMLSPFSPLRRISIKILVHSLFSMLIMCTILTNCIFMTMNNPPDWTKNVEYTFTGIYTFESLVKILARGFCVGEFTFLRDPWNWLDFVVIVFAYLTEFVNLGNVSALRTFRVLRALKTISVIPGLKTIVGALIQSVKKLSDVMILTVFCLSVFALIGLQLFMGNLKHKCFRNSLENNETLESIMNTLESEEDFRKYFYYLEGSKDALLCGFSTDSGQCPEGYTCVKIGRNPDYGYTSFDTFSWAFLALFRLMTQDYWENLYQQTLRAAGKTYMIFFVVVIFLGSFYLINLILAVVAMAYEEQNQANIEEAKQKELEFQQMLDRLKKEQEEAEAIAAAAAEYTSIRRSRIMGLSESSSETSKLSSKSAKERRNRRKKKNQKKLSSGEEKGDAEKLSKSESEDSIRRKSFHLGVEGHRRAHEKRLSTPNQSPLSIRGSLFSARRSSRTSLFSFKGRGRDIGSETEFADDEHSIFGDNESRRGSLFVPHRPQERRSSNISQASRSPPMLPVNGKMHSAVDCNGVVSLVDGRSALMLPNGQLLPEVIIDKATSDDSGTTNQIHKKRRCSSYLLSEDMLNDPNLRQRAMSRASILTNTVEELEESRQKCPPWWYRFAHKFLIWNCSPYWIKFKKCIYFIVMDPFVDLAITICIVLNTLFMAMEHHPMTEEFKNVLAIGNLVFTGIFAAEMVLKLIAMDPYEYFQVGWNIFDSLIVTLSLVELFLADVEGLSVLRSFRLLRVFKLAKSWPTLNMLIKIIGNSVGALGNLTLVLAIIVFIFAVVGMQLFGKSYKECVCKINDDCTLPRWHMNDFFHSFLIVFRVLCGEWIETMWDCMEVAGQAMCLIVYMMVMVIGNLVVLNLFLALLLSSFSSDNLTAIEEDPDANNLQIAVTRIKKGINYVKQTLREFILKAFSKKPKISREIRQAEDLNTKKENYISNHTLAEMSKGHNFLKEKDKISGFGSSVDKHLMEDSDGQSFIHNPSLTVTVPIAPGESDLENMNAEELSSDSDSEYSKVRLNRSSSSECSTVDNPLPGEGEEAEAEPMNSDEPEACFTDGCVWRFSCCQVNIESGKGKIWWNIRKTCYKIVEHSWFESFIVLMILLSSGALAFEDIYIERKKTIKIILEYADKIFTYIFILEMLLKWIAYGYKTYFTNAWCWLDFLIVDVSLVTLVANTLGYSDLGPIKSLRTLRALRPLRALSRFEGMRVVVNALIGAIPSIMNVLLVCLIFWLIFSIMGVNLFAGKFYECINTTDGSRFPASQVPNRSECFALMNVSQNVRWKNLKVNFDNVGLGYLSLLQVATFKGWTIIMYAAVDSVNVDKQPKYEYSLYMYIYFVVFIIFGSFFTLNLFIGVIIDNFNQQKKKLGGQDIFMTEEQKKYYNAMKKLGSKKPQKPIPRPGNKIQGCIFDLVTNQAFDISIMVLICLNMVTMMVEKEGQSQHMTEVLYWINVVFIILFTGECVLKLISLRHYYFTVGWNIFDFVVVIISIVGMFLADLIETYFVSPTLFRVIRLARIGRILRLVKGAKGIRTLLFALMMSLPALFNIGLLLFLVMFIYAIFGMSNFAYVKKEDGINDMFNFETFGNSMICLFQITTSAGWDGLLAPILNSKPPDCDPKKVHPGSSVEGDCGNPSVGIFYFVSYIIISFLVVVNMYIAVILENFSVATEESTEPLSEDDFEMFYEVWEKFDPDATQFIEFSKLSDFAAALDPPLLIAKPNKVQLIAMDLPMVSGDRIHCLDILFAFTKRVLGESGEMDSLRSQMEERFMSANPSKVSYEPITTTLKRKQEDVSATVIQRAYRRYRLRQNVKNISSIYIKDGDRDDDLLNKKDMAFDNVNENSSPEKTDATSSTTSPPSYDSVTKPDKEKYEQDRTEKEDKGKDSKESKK

With `O=C1N(Cc2ccc(C(F)(F)F)o2)c2ccccc2C12COc1cc3c(cc12)OCO3` (racemic) [(I), 1′-{[5-(trifluoromethyl)furan-2-yl]methyl}spiro[furo[2,3-f][1,3]benzodioxole-7,3′-indol]-2′(1′H)-one], in [1], the Ki was found to be 0.142 µM and the Kd was above 10 µM. This compound had an IC50 in [2] of 0.007 µM.

For the compound `O=C1N(Cc2ccc(C(F)(F)F)o2)c2ccccc2[C@@]12COc1cc3c(cc12)OCO3` [(I-R), (R)-1′-{[5-(trifluoromethyl)furan-2-yl]methyl}spiro[furo[2,3-f][1,3]benzodioxole-7,3′-indol]-2′(1H)-one], the “excess of the inactive (R)-enantiomer resulting from use of the racemate” value in data set [3] (oral dosing) is recorded as around 10 fold. The “plasma concentration at an equivalent dose level” value in data set [3] (oral dosing 10, 30, 100 or 200 mg/Kg, compared with the (S)-enantiomer) was “much higher plasma concentration”. Further, in data set [1], the Ki is 0.869 µM and the Kd is above 10 µM. This compound also came in with an IC50 in data set [2] of 4.2 µM. Further, the “reversal of pain responses, percent increase from baseline” value in data set [4] was “no significant increase from baseline”.

Consider `NC1=N[C@H](O)[C@H]2[C@H]3O[C@]4(O)O[C@@H]([C@@H](O)[C@@]2(N1)[C@@H]4O)[C@]3(O)CO` [TTX, tetrodotoxin], for which the “block of [14C] guanidine influx by TTX” value was “completely blocked using TTX” in data set [5]; “TTX partially blocked influx” in data set [6]; “partially blocked by TTX at 100 nM” in data set [7]; “guanidine influx was completely” in [8]; “background was partially blocked” in data set [9].
